Earlier results on one compound are cited in patent publication US7314882B2, “Bicyclic heterocycles as cannabinoid receptor modulators” (Bristol-Myers Squibb Company, priority 2005, dated 2008).

The data set concerns body weight. The note with it: 16 week trial period.

For the compound `Cc1c(C(=O)NN2CCCCC2)nn(-c2ccc(Cl)cc2Cl)c1-c1ccc(Cl)cc1` [SR-141716], the “body weight in human subjects” value is “dose-dependently reduced body weight”.
